Laboratory results: ChEMBL document CHEMBL3792292, “Development of a potent and selective FLT3 kinase inhibitor by systematic expansion of a non-selective fragment-screening hit” (Bioorg Med Chem Lett, 2016)

Assays:
[1] = molecular target: T1, Tyrosine-protein kinase JAK3 (Homo sapiens) (UniProt P52333); test: Inhibition of human N-terminal His-tagged JAK3 catalytic domain (795 to 1124 residues) expressed in baculovirus expression system using fluorescence labelled srctide as substrate at 50 times IC50 by electrophoretic mobility shift assay relative to control
T1 sequence (whole entry): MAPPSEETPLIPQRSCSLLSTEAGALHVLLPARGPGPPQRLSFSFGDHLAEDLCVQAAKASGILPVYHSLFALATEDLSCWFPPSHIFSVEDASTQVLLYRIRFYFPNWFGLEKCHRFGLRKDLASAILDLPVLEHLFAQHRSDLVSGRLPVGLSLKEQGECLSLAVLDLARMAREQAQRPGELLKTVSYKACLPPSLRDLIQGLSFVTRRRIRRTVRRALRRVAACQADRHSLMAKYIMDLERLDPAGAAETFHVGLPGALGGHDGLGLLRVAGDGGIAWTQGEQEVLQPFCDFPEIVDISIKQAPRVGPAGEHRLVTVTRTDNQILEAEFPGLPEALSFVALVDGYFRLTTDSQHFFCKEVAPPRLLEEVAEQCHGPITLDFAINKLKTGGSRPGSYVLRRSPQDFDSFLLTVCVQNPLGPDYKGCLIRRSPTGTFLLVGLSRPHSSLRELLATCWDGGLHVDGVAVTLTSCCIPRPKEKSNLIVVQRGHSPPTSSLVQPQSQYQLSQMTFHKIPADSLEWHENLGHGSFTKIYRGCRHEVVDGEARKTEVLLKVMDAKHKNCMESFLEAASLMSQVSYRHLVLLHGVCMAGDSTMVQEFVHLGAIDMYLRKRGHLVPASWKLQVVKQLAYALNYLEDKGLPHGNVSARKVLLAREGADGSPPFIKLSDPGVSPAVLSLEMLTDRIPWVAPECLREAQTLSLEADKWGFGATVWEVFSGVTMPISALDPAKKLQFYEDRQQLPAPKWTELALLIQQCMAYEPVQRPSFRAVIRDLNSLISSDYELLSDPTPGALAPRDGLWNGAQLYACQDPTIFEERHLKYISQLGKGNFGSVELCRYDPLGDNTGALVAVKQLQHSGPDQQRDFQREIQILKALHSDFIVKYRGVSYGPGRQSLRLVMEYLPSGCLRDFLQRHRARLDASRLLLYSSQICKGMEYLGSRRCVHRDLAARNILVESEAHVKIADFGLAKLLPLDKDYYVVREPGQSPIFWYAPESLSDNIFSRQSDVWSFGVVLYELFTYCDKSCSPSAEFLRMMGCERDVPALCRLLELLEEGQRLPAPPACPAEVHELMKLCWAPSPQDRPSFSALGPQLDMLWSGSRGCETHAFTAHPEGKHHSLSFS

[2] = molecular target: CDK2/Cyclin A2 (Homo sapiens) (UniProt P24941+P20248); test: Inhibition of full length human N-terminal GST-tagged CDK2 (1 to 298 residues)/Cyclin A2 (1 to 432 residues) expressed in baculovirus expression system using fluorescence labelled modified histone H1 as substrate at 50 times IC50 by electrophoretic mobility shift assay relative to control
[3] = molecular target: cAMP-dependent protein kinase catalytic subunit alpha (Homo sapiens) (UniProt P17612); test: Inhibition of full length human N-terminal GST-tagged PKACalpha (1 to 351 residues) expressed in baculovirus expression system using fluorescence labelled kemptide as substrate at 50 times IC50 by electrophoretic mobility shift assay relative to control
[4] = molecular target: Serine/threonine-protein kinase PAK 2 (Homo sapiens) (UniProt Q13177); test: Inhibition of full length human N-terminal GST-tagged PAK2 (1 to 524 residues) expressed in baculovirus expression system using fluorescence labelled DAPK1tide as substrate at 50 times IC50 by electrophoretic mobility shift assay relative to control
Chain of Serine/threonine-protein kinase PAK 2 (Homo sapiens) (Q13177 whole entry, the tested form may be a part): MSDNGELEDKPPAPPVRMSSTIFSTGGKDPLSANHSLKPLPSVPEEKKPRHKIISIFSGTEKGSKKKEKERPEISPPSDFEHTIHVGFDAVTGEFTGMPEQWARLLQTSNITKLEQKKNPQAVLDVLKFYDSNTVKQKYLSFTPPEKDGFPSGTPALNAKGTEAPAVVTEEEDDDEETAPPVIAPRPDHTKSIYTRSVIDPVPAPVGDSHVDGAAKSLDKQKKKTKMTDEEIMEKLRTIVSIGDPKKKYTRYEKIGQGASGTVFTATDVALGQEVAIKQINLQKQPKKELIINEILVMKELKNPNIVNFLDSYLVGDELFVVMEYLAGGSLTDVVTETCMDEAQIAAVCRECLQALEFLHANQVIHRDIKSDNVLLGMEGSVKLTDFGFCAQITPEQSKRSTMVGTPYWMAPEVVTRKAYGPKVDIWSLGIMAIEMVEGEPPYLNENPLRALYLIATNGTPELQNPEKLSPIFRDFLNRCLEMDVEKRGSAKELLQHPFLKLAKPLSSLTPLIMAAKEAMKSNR

[5] = molecular target: T2, Serine/threonine-protein kinase Sgk1 (Homo sapiens) (UniProt O00141); test: Inhibition of human N-terminal GST-tagged SGK (61 to 431 residues) expressed in baculovirus expression system coexpressing His-tagged PDK1 (1 to 556 residues) using fluorescence labelled SGKtide as substrate at 50 times IC50 by electrophoretic mobility shift assay relative to control
T2 sequence (whole entry): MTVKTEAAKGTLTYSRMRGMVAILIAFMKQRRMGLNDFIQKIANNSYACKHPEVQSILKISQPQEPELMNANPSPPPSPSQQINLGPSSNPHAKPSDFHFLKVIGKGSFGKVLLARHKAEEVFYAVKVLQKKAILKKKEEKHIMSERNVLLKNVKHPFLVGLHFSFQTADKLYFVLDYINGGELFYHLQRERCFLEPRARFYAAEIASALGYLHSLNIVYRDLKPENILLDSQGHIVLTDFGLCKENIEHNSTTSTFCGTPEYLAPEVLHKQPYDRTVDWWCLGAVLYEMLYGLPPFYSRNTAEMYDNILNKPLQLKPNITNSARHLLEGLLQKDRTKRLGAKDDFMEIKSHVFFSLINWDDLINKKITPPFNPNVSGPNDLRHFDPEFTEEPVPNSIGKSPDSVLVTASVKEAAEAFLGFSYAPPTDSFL

[6] = molecular target: Vascular endothelial growth factor receptor 2 (Homo sapiens) (UniProt P35968); test: Inhibition of human N-terminal GST-tagged KDR cytoplasmic domain (790 to 1356 residues) expressed in baculovirus expression system using fluorescence labelled CSKtide as substrate at 50 times IC50 by electrophoretic mobility shift assay relative to control
Chain of Vascular endothelial growth factor receptor 2 (Homo sapiens) (P35968 whole entry, the tested form may be a part): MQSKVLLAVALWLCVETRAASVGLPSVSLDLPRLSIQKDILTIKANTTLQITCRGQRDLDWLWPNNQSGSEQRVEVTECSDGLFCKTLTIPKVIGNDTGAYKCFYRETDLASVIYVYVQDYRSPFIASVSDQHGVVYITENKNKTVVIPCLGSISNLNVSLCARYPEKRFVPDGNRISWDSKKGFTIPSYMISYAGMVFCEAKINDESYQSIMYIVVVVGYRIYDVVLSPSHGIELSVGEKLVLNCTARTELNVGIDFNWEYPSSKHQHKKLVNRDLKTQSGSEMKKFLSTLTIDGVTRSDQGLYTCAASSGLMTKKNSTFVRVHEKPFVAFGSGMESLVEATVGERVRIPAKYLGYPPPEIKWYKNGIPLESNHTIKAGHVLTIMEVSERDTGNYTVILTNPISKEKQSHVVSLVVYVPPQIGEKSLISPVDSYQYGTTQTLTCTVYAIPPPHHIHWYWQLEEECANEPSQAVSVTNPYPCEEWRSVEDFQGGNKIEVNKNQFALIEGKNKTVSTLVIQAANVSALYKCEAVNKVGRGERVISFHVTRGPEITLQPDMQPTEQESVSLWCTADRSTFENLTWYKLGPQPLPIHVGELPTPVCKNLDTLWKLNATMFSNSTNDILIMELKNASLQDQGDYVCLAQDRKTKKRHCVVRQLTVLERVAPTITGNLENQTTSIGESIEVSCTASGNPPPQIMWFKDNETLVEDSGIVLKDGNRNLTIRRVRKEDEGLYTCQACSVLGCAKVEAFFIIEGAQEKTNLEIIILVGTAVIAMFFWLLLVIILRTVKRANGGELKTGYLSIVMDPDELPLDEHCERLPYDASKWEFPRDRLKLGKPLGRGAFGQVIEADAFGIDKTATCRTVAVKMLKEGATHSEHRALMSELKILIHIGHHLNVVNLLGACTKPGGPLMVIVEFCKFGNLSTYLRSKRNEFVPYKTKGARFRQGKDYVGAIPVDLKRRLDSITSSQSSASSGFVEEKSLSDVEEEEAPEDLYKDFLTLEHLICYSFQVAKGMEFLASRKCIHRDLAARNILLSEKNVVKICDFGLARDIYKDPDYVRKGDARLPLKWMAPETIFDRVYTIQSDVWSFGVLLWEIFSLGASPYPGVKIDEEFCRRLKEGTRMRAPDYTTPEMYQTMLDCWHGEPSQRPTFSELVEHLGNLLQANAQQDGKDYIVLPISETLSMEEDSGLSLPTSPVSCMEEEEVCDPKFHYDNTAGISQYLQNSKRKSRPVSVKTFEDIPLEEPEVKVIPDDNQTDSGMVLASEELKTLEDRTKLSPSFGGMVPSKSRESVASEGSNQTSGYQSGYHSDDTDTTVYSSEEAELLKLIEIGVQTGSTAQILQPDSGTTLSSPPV

O=C(Nc1ccccc1)c1n[nH]c2ccccc12
inhibition [1]: 51.9%
inhibition [2]: 86.3%
inhibition [3]: 3.1%
inhibition [4]: 0.8%
inhibition [5]: 42.4%
inhibition [6]: 44.2%

O=C(Nc1ccc(C(=O)N2CCN(c3ccccc3)CC2)cc1)c1n[nH]c2ccccc12
inhibition [1]: 26.4%
inhibition [2]: 14.9%
inhibition [3]: 2.7%
inhibition [4]: -1.6%
inhibition [5]: 26.3%
inhibition [6]: 34.2%

O=C(Nc1ccc(CN2CCN(c3ccccc3)CC2)cc1)c1n[nH]c2ccccc12
inhibition [1]: 9%
inhibition [2]: 4.5%
inhibition [3]: -1.4%
inhibition [4]: 0.6%
inhibition [5]: 11.9%
inhibition [6]: 15.8%
